# Data taken from patent US4439426A, “Semisynthetic macrolidic antibiotics, intermediate compounds for their preparation and related pharmaceutical compositions containing them” (priority 1981, dated 1984).
# Key:
# [1] = Stability in acidic environment at 25° C. (half-life of initial microbiological activity); format: physicochemical; conditions: aqueous solution
# Method: Stability in acidic environnment at 25° C. of the novel
# Note: t 1/2 represents the time for reducing to one half the initial powe
# of the antibiotic determined by microbiological method through diffusion
# on a plate using the test stock Microccocus luteus (Sarcina lutea) ATCC
# [2] = test system: Acholeplasma laidlawii ATCC 23206 LRP 204; assay: Bacteriostatic power in solid medium (MIC); format: cell-based; conditions: Acholeplasma laidlawii, ATCC23206; solid medium; read-out: Minimum inhibiting concentration
# Excerpt: (§1) the bacteriostatic power, expressed as the minimum inhibiting concentration (MIC) against both aerobic and anaerobic, Gram positive and Gram negative, bacterial stocks: the related results are reported in the tables 2 and 3.
# Bacillus subtilis LRP 25 = assay: Bacteriostatic power in solid medium (MIC); format: cell-based; conditions: Bacillus subtilis, LRP25; solid medium; read-out: Minimum inhibiting concentration
# Excerpt: as §1
# [3] = test system: Bacteroides fragilis ATCC 23745 LRP 205; assay: Bacteriostatic power in solid medium (MIC); format: cell-based; conditions: Bacteroides fragilis, ATCC23745; solid medium; anaerobic; read-out: Minimum inhibiting concentration
# Excerpt: as §1
# [4] = test system: Corynebacterium diphteriae LRP 24; assay: Bacteriostatic power in solid medium (MIC); format: cell-based; conditions: Corynebacterium, LRP24; solid medium; read-out: Minimum inhibiting concentration
# Excerpt: as §1
# Escherichia coli LRP 50 = assay: Bacteriostatic power in solid medium (MIC); format: cell-based; conditions: Escherichia coli, LRP50; solid medium; read-out: Minimum inhibiting concentration
# Excerpt: as §1
# [5] = test system: Fusobacteriumnecrophroum ATCC 27852 LRP 210; assay: Bacteriostatic power in solid medium (MIC); format: cell-based; conditions: solid medium; anaerobic; read-out: Minimum inhibiting concentration
# Excerpt: as §1
# [6] = test system: Haemophilus influenzae ATCC 19418 LRP 213; assay: Bacteriostatic power in solid medium (MIC); format: cell-based; conditions: Haemophilus influenzae, ATCC19418; solid medium; read-out: Minimum inhibiting concentration
# Excerpt: as §1
# [7] = test system: Klelsiella pneumoniae LRP 54; assay: Bacteriostatic power in solid medium (MIC); format: cell-based; conditions: solid medium; read-out: Minimum inhibiting concentration
# Excerpt: as §1
# [8] = test system: Micrococcus luteus ATCC 15957 LRP 193; assay: Bacteriostatic power in solid medium (MIC); format: cell-based; conditions: Micrococcus luteus, ATCC15957; solid medium; Erythromycin resistant; read-out: Minimum inhibiting concentration
# Excerpt: as §1
# [9] = test system: Micrococcus luteus ATCC 9341 LRP 6; assay: Bacteriostatic power in solid medium (MIC); format: cell-based; conditions: Micrococcus luteus, ATCC9341; solid medium; read-out: Minimum inhibiting concentration
# Excerpt: as §1
# [10] = test system: Mycoplasma hominis I ATCC 14027 LRP 211; assay: Bacteriostatic power in solid medium (MIC); format: cell-based; conditions: Metamycoplasma hominis, ATCC14027; solid medium; read-out: Minimum inhibiting concentration
# Excerpt: as §1
# [11] = test system: Neisseria gonorrhoeae ATCC 19424 LRP 214; assay: Bacteriostatic power in solid medium (MIC); format: cell-based; conditions: Neisseria gonorrhoeae, ATCC19424; solid medium; read-out: Minimum inhibiting concentration
# Excerpt: as §1
# [12] = test system: Proteus vulgaris ATCC 6380 LRP 13; assay: Bacteriostatic power in solid medium (MIC); format: cell-based; conditions: Proteus vulgaris, ATCC6380; solid medium; read-out: Minimum inhibiting concentration
# Excerpt: as §1
# [13] = test system: Pseudomonas aeruginosa LRP 9; assay: Bacteriostatic power in solid medium (MIC); format: cell-based; conditions: Pseudomonas aeruginosa, LRP9; solid medium; read-out: Minimum inhibiting concentration
# Excerpt: as §1
# Shigella sonnei LRP 5 = assay: Bacteriostatic power in solid medium (MIC); format: cell-based; conditions: LRP5, read-out: Minimum inhibiting concentration
# Excerpt: as §1
# [14] = test system: Staphylococcus aureus ATCC 14154 LRP 78; assay: Bacteriostatic power in solid medium (MIC); format: cell-based; conditions: Staphylococcus aureus, ATCC14154; solid medium; Erythromycin resistant; read-out: Minimum inhibiting concentration
# Excerpt: as §1
# [15] = test system: Staphylococcus aureus ATCC 6538P LRP 14; assay: Bacteriostatic power in solid medium (MIC); format: cell-based; conditions: Staphylococcus aureus, ATCC6538P; solid medium; Penycilline resistant; read-out: Minimum inhibiting concentration
# Excerpt: as §1
# [16] = test system: Staphylococcus aureus ATCC 6538P LRP 39; assay: Bacteriostatic power in solid medium (MIC); format: cell-based; conditions: Staphylococcus aureus, ATCC6538P; solid medium; read-out: Minimum inhibiting concentration
# Excerpt: as §1
# [17] = test system: Streptococcus faecalis LRP 7; assay: Bacteriostatic power in solid medium (MIC); format: cell-based; conditions: Enterococcus faecalis, LRP7; solid medium; read-out: Minimum inhibiting concentration
# Excerpt: as §1
# [18] = test system: Streptococcus faecalis subsp. zymogenes ATCC 12958 LRP 61; assay: Bacteriostatic power in solid medium (MIC); format: cell-based; conditions: Enterococcus faecalis, ATCC12958; solid medium; read-out: Minimum inhibiting concentration
# Excerpt: as §1
# [19] = test system: Streptococcus pneumoniae ATCC 6303 LRP 35; assay: Bacteriostatic power in solid medium (MIC); format: cell-based; conditions: Streptococcus pneumoniae, ATCC6303; solid medium; read-out: Minimum inhibiting concentration
# Excerpt: as §1
# [20] = test system: Streptococcus pneumoniae ATCC 6303 LRP 52; assay: Bacteriostatic power in solid medium (MIC); format: cell-based; conditions: Streptococcus pneumoniae, ATCC6303; solid medium; read-out: Minimum inhibiting concentration
# Excerpt: as §1
# [21] = test system: Streptococcus pneumoniae ATCC 6303 LRP 53; assay: Bacteriostatic power in solid medium (MIC); format: cell-based; conditions: Streptococcus pneumoniae, ATCC6303; solid medium; read-out: Minimum inhibiting concentration
# Excerpt: as §1
# [22] = test system: Streptococcus pyogenes ATCC 8668 LRP 197; assay: Bacteriostatic power in solid medium (MIC); format: cell-based; conditions: Streptococcus pyogenes, ATCC8668; solid medium; read-out: Minimum inhibiting concentration
# Excerpt: as §1
# [23] = test system: Streptococcus pyogenes ATCC 8668 LRP 34; assay: Bacteriostatic power in solid medium (MIC); format: cell-based; conditions: Streptococcus pyogenes, ATCC8668; solid medium; read-out: Minimum inhibiting concentration
# Excerpt: as §1
# [24] = test system: Clostridium perfrigens ATCC 3624 LRP 206; assay: microbe, parasite or virus in culture; format: cell-based; conditions: ATCC3624, solid medium, anaerobic, read-out: Minimum inhibiting concentration
# Excerpt: as §1
# Salmonella typhy LRP 8 = assay: microbe, parasite or virus in culture; format: cell-based; conditions: LRP8, solid medium, read-out: Minimum inhibiting concentration
# Excerpt: as §1
# [25] = test system: Corynebacterium diphteriae LRP 24; assay: Bacteriostatic power in liquid medium (MIC); format: cell-based; conditions: Corynebacterium, LRP24; liquid medium; read-out: Minimum inhibiting concentration
# Excerpt: as §1
# [26] = test system: Staphylococcus aureus ATCC 6538 P LRP 39; assay: Bacteriostatic power in liquid medium (MIC); format: cell-based; conditions: Staphylococcus aureus, ATCC6538; liquid medium; read-out: Minimum inhibiting concentration
# Excerpt: as §1
# [27] = test system: Streptococcus faecalis subs. zymogenes ATCC 12958 LRP 61; assay: Bacteriostatic power in liquid medium (MIC); format: cell-based; conditions: Enterococcus faecalis, ATCC12958; liquid medium; read-out: Minimum inhibiting concentration
# Excerpt: as §1
# [28] = test system: Streptococcus pneumoniae ATCC 6303 LRP 35; assay: Bacteriostatic power in liquid medium (MIC); format: cell-based; conditions: Streptococcus pneumoniae, ATCC6303; liquid medium; read-out: Minimum inhibiting concentration
# Excerpt: as §1
# [29] = test system: Streptococcus pyogenes ATCC 8668 LRP 34; assay: Bacteriostatic power in liquid medium (MIC); format: cell-based; conditions: Streptococcus pyogenes, ATCC8668; liquid medium; read-out: Minimum inhibiting concentration
# Excerpt: as §1
# [30] = test system: Corynebacterium diphteriae LRP 24; assay: Minimum bactericidal concentration (MBC); format: cell-based
# Excerpt: (§2) the bacterial power, expressed as the minimum bactericidal power (MBC) against some Gram positive aerobic stocks (table 5).
# [31] = test system: Staphylococcus aureus ATCC 6538 P LRP 39; assay: Minimum bactericidal concentration (MBC); format: cell-based
# Excerpt: as §2
# [32] = test system: Streptococcus faecalis subs. zymogenes LRP 61; assay: Minimum bactericidal concentration (MBC); format: cell-based
# Excerpt: as §2
# [33] = test system: Streptococcus pneumoniae ATCC 6303 LRP 35; assay: Minimum bactericidal concentration (MBC); format: cell-based
# Excerpt: as §2
# [34] = test system: Streptococcus pyogenes ATCC 8668 LRP 34; assay: Minimum bactericidal concentration (MBC); format: cell-based
# Excerpt: as §2
structure (smiles),measurement,setting,value
"CC[C@H]1OC(=O)[C@H](C)[C@@H](O[C@H]2C[C@@](C)(OC)[C@@H](O)[C@H](C)O2)[C@H](C)[C@@H](O[C@@H]2O[C@H](C)C[C@H](N(C)C)[C@H]2O)[C@](C)(O)C[C@](C)(F)C(=O)[C@H](C)[C@@H](O)[C@H]1C [P-80203, (8S)-8-fluoroerythromycin B]",half-life,[1]; pH 2,3 h
same,half-life,[1]; pH 3,45 h
same,MIC,[2],0.195 µg/mL
same,MIC,Bacillus subtilis LRP 25,0.049 µg/mL
same,MIC,[3],0.195 µg/mL
same,MIC,[4],0.006 µg/mL
same,MIC,Escherichia coli LRP 50,25 µg/mL
same,MIC,[5],3.12 µg/mL
same,MIC,[6],6.25 µg/mL
same,MIC,[7],25 µg/mL
same,MIC,[8],25 µg/mL
same,MIC,[9],0.012 µg/mL
same,MIC,[10],25 µg/mL
same,MIC,[11],0.097 µg/mL
same,MIC,[12],25 µg/mL
same,MIC,[13],25 µg/mL
same,MIC,Shigella sonnei LRP 5,25 µg/mL
same,MIC,[14],25 µg/mL
same,MIC,[15],0.097 µg/mL
same,MIC,[16],0.097 µg/mL
same,MIC,[17],0.195 µg/mL
same,MIC,[18],0.195 µg/mL
same,MIC,[19],0.049 µg/mL
same,MIC,[20],0.024 µg/mL
same,MIC,[21],0.024 µg/mL
same,MIC,[22],0.049 µg/mL
same,MIC,[23],0.024 µg/mL
same,MIC,[24],0.39 µg/mL
same,MIC,Salmonella typhy LRP 8,25 µg/mL
same,MIC,[25],0.012 µg/mL
same,MIC,[26],0.097 µg/mL
same,MIC,[27],0.39 µg/mL
same,MIC,[28],0.049 µg/mL
same,MIC,[29],0.024 µg/mL
same,MBC/MIC,[30],4
same,MBC,"[30]; Corynebacterium, LRP24, read-out: Minimum bactericidal concentration (MBC)",0.049 µg/mL
same,MBC/MIC,[31],32
same,MBC,"[31]; Staphylococcus aureus, ATCC6538, read-out: Minimum bactericidal concentration (MBC)",3.12 µg/mL
same,MBC/MIC,[32],8
same,MBC,"[32]; Enterococcus faecalis, read-out: Minimum bactericidal concentration (MBC)",3.12 µg/mL
same,MBC/MIC,[33],1
same,MBC,"[33]; Streptococcus pneumoniae, ATCC6303, read-out: Minimum bactericidal concentration (MBC)",0.049 µg/mL
same,MBC/MIC,[34],8
same,MBC,"[34]; Streptococcus pyogenes, ATCC8668, read-out: Minimum bactericidal concentration (MBC)",0.195 µg/mL
